Laboratory results from PubChem BioAssay (NCI).
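Step 1: Grow cells in 96-well plates. Step 2: Expose to compound for 48 hours at 5 concentrations. Step 3: Interpolate endpoints linearly; if unreached, use highest concentration. GI50: concentration for 50% inhibition of growth. Definition used: TGI = concentration required for complete inhibition of growth.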

Experiments:
Experiment in all cases: NCI anticancer screen, dose series, 48 h
U251 CNS = test system: U251 CNS
NCI/ADR-RES ovarian = test system: NCI/ADR-RES ovarian
NCI-H226 lung = test system: NCI-H226 lung
HS 578T breast = test system: HS 578T breast
COLO 205 colon = test system: COLO 205 colon
NCI-H460 lung = test system: NCI-H460 lung
MCF7 breast = test system: MCF7 breast
DU-145 prostate = test system: DU-145 prostate
786-0 renal = test system: 786-0 renal
HT29 colon = test system: HT29 colon
SF-295 CNS = test system: SF-295 CNS
IGROV1 ovarian = test system: IGROV1 ovarian
BT-549 breast = test system: BT-549 breast
OVCAR-4 ovarian = test system: OVCAR-4 ovarian
NCI-H522 lung = test system: NCI-H522 lung
SR leukemia = test system: SR leukemia
PC-3 prostate = test system: PC-3 prostate
UACC-257 melanoma = test system: UACC-257 melanoma
OVCAR-8 ovarian = test system: OVCAR-8 ovarian
HL-60(TB) leukemia = test system: HL-60(TB) leukemia
SNB-19 CNS = test system: SNB-19 CNS
SN12C renal = test system: SN12C renal
RXF 393 renal = test system: RXF 393 renal
HOP-62 NSCLC = test system: HOP-62 NSCLC
RPMI-8226 leukemia = test system: RPMI-8226 leukemia
KM12 colon = test system: KM12 colon
UACC-62 melanoma = test system: UACC-62 melanoma
OVCAR-5 ovarian = test system: OVCAR-5 ovarian
T-47D breast = test system: T-47D breast
HCT-116 colon = test system: HCT-116 colon

Compound `COc1cc2c(c(OC)c1OC)C(=O)CC(c1cccc(NC(=O)c3cc(NC(=O)[C@H](C)N)ccc3Cl)c1)O2` (some centres undefined) has a TGI (U251 CNS) of 28 µM, a GI50 (NCI/ADR-RES ovarian) of 16.2 µM and a TGI (NCI/ADR-RES ovarian) of 47 µM. It also gave a GI50 (NCI-H226 lung) of 16.8 µM, a TGI (NCI-H226 lung) of 38.6 µM and a GI50 (HS 578T breast) of 20 µM. The TGI (HS 578T breast) was 59.3 µM, the GI50 (COLO 205 colon) was 17.1 µM and the TGI (COLO 205 colon) was 33.2 µM. It also gave a GI50 (NCI-H460 lung) of 15.3 µM, a TGI (NCI-H460 lung) of 30.6 µM and a GI50 (MCF7 breast) of 12.9 µM. It also gave a TGI (MCF7 breast) of 26.8 µM, a GI50 (DU-145 prostate) of 17.5 µM and a TGI (DU-145 prostate) of 34.5 µM. It also gave a GI50 (786-0 renal) of 19.1 µM, a TGI (786-0 renal) of 36.7 µM and a GI50 (HT29 colon) of 18.6 µM. It also gave a TGI (HT29 colon) of 37.2 µM, a GI50 (SF-295 CNS) of 16.3 µM and a TGI (SF-295 CNS) of 29.9 µM. It also gave a GI50 (IGROV1 ovarian) of 16.6 µM, a TGI (IGROV1 ovarian) of 32.9 µM and a GI50 (BT-549 breast) of 15 µM. The TGI (BT-549 breast) was 32 µM, the GI50 (OVCAR-4 ovarian) was 15.6 µM and the TGI (OVCAR-4 ovarian) was 47 µM. It also gave a GI50 (NCI-H522 lung) of 11.3 µM, a TGI (NCI-H522 lung) of 26 µM and a GI50 (SR leukemia) of 5.45 µM. For the same compound, the TGI (SR leukemia) was 39.2 µM, the GI50 (PC-3 prostate) was 17.2 µM and the TGI (PC-3 prostate) was 69.5 µM. It also gave a GI50 (UACC-257 melanoma) of 14.4 µM, a TGI (UACC-257 melanoma) of 29.5 µM and a GI50 (OVCAR-8 ovarian) of 16.1 µM. For the same compound, the TGI (OVCAR-8 ovarian) was 41.7 µM, the GI50 (HL-60(TB) leukemia) was 18.8 µM and the TGI (HL-60(TB) leukemia) was 37.5 µM. The GI50 (SNB-19 CNS) was 15.8 µM, the TGI (SNB-19 CNS) was 29.2 µM and the GI50 (SN12C renal) was 14.1 µM. It also gave a TGI (SN12C renal) of 30.9 µM, a GI50 (RXF 393 renal) of 18.6 µM and a TGI (RXF 393 renal) of 37.1 µM. For the same compound, the GI50 (HOP-62 NSCLC) was 15.1 µM, the TGI (HOP-62 NSCLC) was 30.6 µM and the GI50 (RPMI-8226 leukemia) was 7.29 µM. It also gave a TGI (RPMI-8226 leukemia) of 51.7 µM, a GI50 (KM12 colon) of 19.3 µM and a TGI (KM12 colon) of 37.9 µM. It also gave a GI50 (UACC-62 melanoma) of 12.3 µM, a TGI (UACC-62 melanoma) of 24.9 µM and a GI50 (OVCAR-5 ovarian) of 18.3 µM. For the same compound, the TGI (OVCAR-5 ovarian) was 34.6 µM, the GI50 (T-47D breast) was 8.07 µM and the TGI (T-47D breast) was 29 µM. The GI50 (HCT-116 colon) was 17.5 µM and the TGI (HCT-116 colon) was 35.6 µM.
